Measured values as given in ChEMBL document CHEMBL1137187, “Isoindolinone ureas: a novel class of KDR kinase inhibitors” (Bioorg Med Chem Lett, 2004).

The compounds below were run against Vascular endothelial growth factor receptor 2 (Homo sapiens, UniProt P35968) (assay: Inhibition of Vascular endothelial growth factor receptor 2 (KDR)). Settings: not given.
Chain of Vascular endothelial growth factor receptor 2 (P35968 whole entry): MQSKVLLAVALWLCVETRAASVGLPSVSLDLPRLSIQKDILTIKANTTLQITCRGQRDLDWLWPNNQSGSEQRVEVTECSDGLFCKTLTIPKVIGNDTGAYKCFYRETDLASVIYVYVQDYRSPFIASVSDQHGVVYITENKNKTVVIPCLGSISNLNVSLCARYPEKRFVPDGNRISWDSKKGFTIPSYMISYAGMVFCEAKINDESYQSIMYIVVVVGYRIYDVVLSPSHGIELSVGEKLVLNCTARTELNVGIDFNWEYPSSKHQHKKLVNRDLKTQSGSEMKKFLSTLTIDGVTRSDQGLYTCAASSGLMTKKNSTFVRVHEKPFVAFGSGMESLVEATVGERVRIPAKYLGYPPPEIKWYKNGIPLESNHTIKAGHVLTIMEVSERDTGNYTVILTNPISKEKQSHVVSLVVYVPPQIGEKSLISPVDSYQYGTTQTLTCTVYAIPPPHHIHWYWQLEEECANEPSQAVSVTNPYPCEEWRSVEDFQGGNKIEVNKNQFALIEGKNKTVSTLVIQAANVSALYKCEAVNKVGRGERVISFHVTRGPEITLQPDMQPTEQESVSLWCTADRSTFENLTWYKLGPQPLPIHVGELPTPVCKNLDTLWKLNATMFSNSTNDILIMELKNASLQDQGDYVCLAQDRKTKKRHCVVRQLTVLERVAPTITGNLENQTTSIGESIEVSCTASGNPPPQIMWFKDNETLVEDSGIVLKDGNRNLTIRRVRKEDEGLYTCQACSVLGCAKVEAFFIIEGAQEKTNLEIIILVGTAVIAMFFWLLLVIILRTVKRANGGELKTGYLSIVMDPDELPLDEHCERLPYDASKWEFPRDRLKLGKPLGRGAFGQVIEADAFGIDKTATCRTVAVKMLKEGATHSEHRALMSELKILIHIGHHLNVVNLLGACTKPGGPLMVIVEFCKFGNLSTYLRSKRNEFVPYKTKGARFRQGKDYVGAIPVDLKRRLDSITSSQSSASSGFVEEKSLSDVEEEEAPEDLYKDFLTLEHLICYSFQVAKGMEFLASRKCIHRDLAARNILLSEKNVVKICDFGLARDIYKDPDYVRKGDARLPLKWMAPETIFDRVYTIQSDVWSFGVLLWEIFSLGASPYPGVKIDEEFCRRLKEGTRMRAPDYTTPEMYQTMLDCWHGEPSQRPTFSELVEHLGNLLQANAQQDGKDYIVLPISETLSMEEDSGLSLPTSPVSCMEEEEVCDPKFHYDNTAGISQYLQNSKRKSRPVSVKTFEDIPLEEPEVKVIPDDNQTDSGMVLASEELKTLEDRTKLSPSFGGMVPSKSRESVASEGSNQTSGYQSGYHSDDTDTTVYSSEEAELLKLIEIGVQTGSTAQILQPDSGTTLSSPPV

Compound | IC50 [nM]
Cc1ccc(NC(=O)Nc2ccc(-c3cccc4c3CNC4=O)cc2)cc1 | 430
O=C(Nc1ccc(-c2cccc3c2CNC3=O)cc1)Nc1cccc(Cl)c1 | 46
O=C(Nc1ccc(-c2cccc3c2CNC3=O)cc1)Nc1cccc(F)c1 | 520
Cc1cccc(NC(=O)Nc2ccc(-c3ccc(NC(=O)c4ccccc4)c4c3CNC4=O)cc2)c1 | 470
Cc1cccc(NC(=S)Nc2ccc(-c3cccc4c3CNC4=O)cc2)c1 | 10000
Cc1cccc(NC(=O)Nc2ccc(-c3cccc4c3CNC4=O)cc2C(F)(F)F)c1 | 34
Cc1cccc(CC(=O)Nc2ccc(-c3cccc4c3CNC4=O)cc2)c1 | > 50000
Cc1cccc(NC(=O)Nc2ccc(-c3ccc(N)c4c3CNC4=O)cc2)c1 | 14
CC(=O)Nc1ccc(-c2ccc(NC(=O)Nc3cccc(C)c3)cc2)c2c1C(=O)NC2 | 64
N#Cc1cccc(NC(=O)Nc2ccc(-c3cccc4c3CNC4=O)cc2)c1 | 370
O=C(Nc1ccc(-c2cccc3c2CNC3=O)cc1)Nc1cc(C(F)(F)F)ccc1F | 23
COc1ccc(-c2ccc(NC(=O)Nc3cccc(C)c3)cc2)c2c1C(=O)NC2 | 21
Cc1cc(C)cc(NC(=O)Nc2ccc(-c3cccc4c3CNC4=O)cc2)c1 | 83
Cc1cccc(NC(=O)Nc2ccc(-c3ccc(NC(=O)c4cccnc4)c4c3CNC4=O)cc2)c1 | 10
CCc1cc(-c2cccc3c2CNC3=O)ccc1NC(=O)Nc1cccc(C)c1 | 6000
Cc1cccc(NC(=O)Nc2ccc(-c3cccc4c3CNC4=O)cc2F)c1 | 44
Cc1cccc(N(C)C(=O)Nc2ccc(-c3cccc4c3CNC4=O)cc2)c1 | 19000
CC(C)OCc1ccc2c(c1)c1c3c(c4c(c1n2CCCCC(=O)N(C)C)Cc1ccccc1-4)C(=O)NC3 | 18
Cc1cccc(NC(=O)N(C)c2ccc(-c3cccc4c3CNC4=O)cc2)c1 | 1100

Compound | IC50 [nM]
Cc1cccc(NC(=O)Nc2ccc(-c3cccc4c3CNC4=O)c(C(F)(F)F)c2)c1 | 9000
Cc1cccc(NC(=O)Nc2ccc(-c3cccc4c3CNC4=O)c(F)c2)c1 | 52
Cc1cccc(NC(=O)Nc2c(C)cc(-c3cccc4c3CNC4=O)cc2C)c1 | > 50000
Cc1cccc(NC(=O)Nc2ccc(-c3cccc4c3CNC4=O)c(C)c2)c1 | 770
O=C1NCc2c1cccc2-c1ccc(NS(=O)(=O)c2ccccc2)cc1 | > 50000
O=C(Nc1ccccc1)Nc1ccc(-c2cccc3c2CNC3=O)cc1 | 1800
Cc1cccc(NC(=O)Nc2ccc(-c3cccc4c3CNC4=O)cc2Cl)c1 | 30
Cc1cccc(NC(=O)Nc2ccc(-c3cccc4c3CNC4=O)c(Cl)c2)c1 | 71
COc1cc(-c2nn([C@H]3CC[C@H](N4CCN(C)CC4)CC3)c3ncnc(N)c23)ccc1NC(=O)c1ccccc1 | > 50
Cc1cccc(NC(=O)Cc2ccc(-c3cccc4c3CNC4=O)cc2)c1 | 2100
Cc1cccc(NC(=O)Nc2ccc(-c3ccc(NC(=O)CN(C)C)c4c3CNC4=O)cc2)c1 | 350
COc1cccc(NC(=O)Nc2ccc(-c3cccc4c3CNC4=O)cc2)c1 | 570
Cc1ccccc1NC(=O)Nc1ccc(-c2cccc3c2CNC3=O)cc1 | 4400
O=C(Nc1ccc(-c2cccc3c2CNC3=O)cc1)c1ccccc1 | > 50000
O=C(Nc1ccc(-c2cccc3c2CNC3=O)cc1)Nc1ccc(C(F)(F)F)cc1 | 161
COCCOc1ccc(-c2ccc(NC(=O)Nc3cccc(C)c3)cc2)c2c1C(=O)NC2 | 126
O=C(Nc1ccc(-c2cccc3c2CNC3=O)cc1)Nc1cccc(C(F)(F)F)c1 | 7
O=C(Nc1ccc(-c2cccc3c2CNC3=O)cc1)Nc1ccc2c(c1)CCC2 | 39
CCc1cccc(NC(=O)Nc2ccc(-c3cccc4c3CNC4=O)cc2)c1 | 29

These compounds were tested on NIH3T3 (assay: inhibitory activity of the Compound against NIH3T3 Cell lines). Settings: Mus musculus.
Format: functional, cell-based

Compound | IC50 [nM]
Cc1cccc(NC(=O)Nc2ccc(-c3cccc4c3CNC4=O)cc2C)c1 | 68
O=C(Nc1ccc(-c2cccc3c2CNC3=O)cc1)Nc1cc(C(F)(F)F)ccc1F | 150
COc1ccc(-c2ccc(NC(=O)Nc3cccc(C)c3)cc2)c2c1C(=O)NC2 | 170
Cc1cccc(NC(=O)Nc2ccc(-c3ccc(NC(=O)c4cccnc4)c4c3CNC4=O)cc2)c1 | 11
Cc1cccc(NC(=O)Nc2ccc(-c3cccc4c3CNC4=O)cc2Cl)c1 | 99
Cc1cccc(NC(=O)Nc2ccc(-c3cccc4c3CNC4=O)cc2)c1 | 270
O=C(Nc1ccc(-c2cccc3c2CNC3=O)cc1)Nc1cccc(C(F)(F)F)c1 | 65
